Source: article PMC6982741, “Design, Synthesis and Study of Nitrogen Monoxide Donors as Potent Hypolipidaemic and Anti-Inflammatory Agents” (Molecules, 2019)
Read-outs that look alike come from different tables or passages of the source. Marks after values point to notes of the source that are not given here.

Assays:
[1] = test system: carrageenan-induced rat paw oedema; test: Carrageenan-induced rat paw oedema; type: in vivo, Wistar rats; settings: 0.15 mmol/kg i.p., oedema after 3.5 h, vs carrageenan-only controls; for inhibition in vivo at 150 µmol/kg: Rattus norvegicus, ip, read-out: % Oedema Reduction
Procedure: The carrageenan-induced paw oedema is a well-known and widely used model of acute inflammation. The response to carrageenan inflammation may be divided into three phases. In the first phase (after 1.5 h), histamine and serotonin are released, the second phase (1.5–2.5 h after carrageenan administration) is mediated by kinins, whereas, in the third phase, more than two hours post administration, neutrophil infiltration, prostaglandin production and release of pro-inflammatory cytokines are involved. In this work, oedema was measured 3.5 h post injection.
κ-Carrageenan and lipoxygenase type I-B from soybean were purchased from Sigma (St. Louis, MO, U.S.A.).
The tested compounds (in water with a few drops of Tween 80) were given i.p. (0.15 mmol/kg) to rats, just after the i.d. injection of 0.1 mL of an aqueous carrageenan solution (1% w/v) in the hind paw of rats. The produced oedema, after 3.5 h, was estimated as paw weight increase.

soybean lipoxygenase 1-B = molecular target: T1, soybean lipoxygenase 1-B (Glycine max, UniProt P08170); test: In vitro soybean lipoxygenase inhibition, linoleate as substrate; type: biochemical; settings: sodium linoleate 100 μM; after 7 min of incubation; pH 9.0, 28 °C
T1 construct: purchased Sigma (St. Louis, MO, U.S.A.)
T1 sequence (P08170 1-839): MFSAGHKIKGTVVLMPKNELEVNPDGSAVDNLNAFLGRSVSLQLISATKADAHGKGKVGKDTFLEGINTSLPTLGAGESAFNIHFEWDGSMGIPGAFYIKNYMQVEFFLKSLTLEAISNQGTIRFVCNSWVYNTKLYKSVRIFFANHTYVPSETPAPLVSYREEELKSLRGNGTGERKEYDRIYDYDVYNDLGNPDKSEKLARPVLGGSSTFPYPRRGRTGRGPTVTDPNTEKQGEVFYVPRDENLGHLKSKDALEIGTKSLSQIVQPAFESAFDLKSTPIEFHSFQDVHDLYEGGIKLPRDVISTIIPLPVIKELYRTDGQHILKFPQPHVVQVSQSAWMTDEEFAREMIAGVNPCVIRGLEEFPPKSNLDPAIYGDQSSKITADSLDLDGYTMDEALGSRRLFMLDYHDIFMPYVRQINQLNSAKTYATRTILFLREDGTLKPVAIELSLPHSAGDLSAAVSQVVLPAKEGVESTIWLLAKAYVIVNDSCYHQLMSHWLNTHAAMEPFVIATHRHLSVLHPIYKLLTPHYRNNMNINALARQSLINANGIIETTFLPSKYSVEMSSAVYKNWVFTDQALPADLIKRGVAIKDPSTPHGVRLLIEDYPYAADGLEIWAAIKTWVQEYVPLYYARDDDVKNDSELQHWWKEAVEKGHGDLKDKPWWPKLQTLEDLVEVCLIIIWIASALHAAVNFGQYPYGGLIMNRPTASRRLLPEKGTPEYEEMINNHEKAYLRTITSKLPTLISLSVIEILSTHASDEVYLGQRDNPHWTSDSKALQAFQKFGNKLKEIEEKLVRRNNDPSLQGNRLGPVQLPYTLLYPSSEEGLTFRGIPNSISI
Procedure: The reaction mixture contained the examined compounds (in absolute ethanol, 1–300 μM), soybean lipoxygenase (in saline, 250 u/mL) and sodium linoleate (100 μM), in Tris–HCl buffer, pH 9.0. The reaction was monitored for 7 min at 28 °C, recording the absorbance at 234 nm. […]

[2] = test system: rat hepatic microsomal membrane lipid peroxidation; test: Fe2+/ascorbate induced lipid peroxidation, TBA reactive material; type: biochemical; settings: for IC50: after 45 min of incubation, read-out: Inhibition of Lipid Peroxidation IC50
Procedure: (§1) The antioxidant activity of compounds was estimated by the inhibition of rat hepatic microsomal membrane lipid peroxidation, induced by Fe^+2/ascorbate, estimated as 2-thiobarbituric acid (TBA) reactive material, and by their interaction with the N-centred 1,1-diphenyl-2-picrylhydrazyl (DPPH) stable free radical. […] The percent interaction with DPPH and the IC50 values of compounds 7–9 on rat hepatic microsomal membrane lipid peroxidation, after 45 min of incubation is shown in Table 4.
The peroxidation of heat-inactivated (90°, 90 s) rat liver microsomal fraction was induced by ascorbic acid (0.2 mM) and ferrous sulphate (10 μΜ). The studied compounds, in dimethylsulfoxide, were added at concentrations 1 μM–1 mM. Aliquots were taken from the incubation mixture (37 °C) for 45 min. Lipid peroxidation was assessed spectrophotometrically (535/600 nm) as 2-thiobarbituric acid reactive material. All compounds and solvents were found not to interfere with the assay.

[3] = In vitro nitrogen monoxide release (Griess reagent); settings: DMSO/water 7/3, overnight, cadmium
Procedure: Due to their poor aqueous solubility, compounds 1, 3-7 and 9 were dissolved in 7/3 (v/v) mixture of DMSO/water at various concentrations and incubated overnight at room temperature in the presence of cadmium. S-nitroso-N-acetylpenicillamine (SNAP) was dissolved either in DMSO/water 7/3 or in water and treated as above.
Aliquots were taken from each sample and added to an equal volume of N-naphthylaminoethylamine (0.2%) and sulfanilamide (2%) solution in 3 N hydrochloric acid (Griess reagent). Appropriate sodium nitrite solutions in the same DMSO/water mixture were used for the construction of the standard curve and values were identical to those obtained with aqueous solutions. Nitric oxide release was estimated spectrophotometrically (540 nm).

[4] = Interaction with the stable radical DPPH; settings: DPPH 200 μΜ, after 30 min
Procedure: as §1
Compounds (in absolute ethanol, final concentrations 25–200 μM) were added to an ethanolic solution of DPPH (final concentration 200 μM) at room temperature (22 ± 2 °C). Absorbance (517 nm) was recorded after 30 min.

hyperlipidaemic rats = test: Triton WR1339 (tyloxapol) induced hyperlipidaemia in rats; type: in vivo, Wistar rats; settings: Rattus norvegicus, ip, 24 h, 150 μmol/kg i.p., tyloxapol 200 mg/kg i.p., plasma after 24 h
Text: The pleiotropic effects of statins, used as hypolipidaemic drugs, include antioxidant ability and direct increase of eNOS activity, in addition to inhibition of 3-hydroxy-3-methylglutaryl coenzyme A (HMG-CoA) reductase. […] The systemic administration of Triton-WR1339 (tyloxapol) to rats induces a biphasic elevation of plasma cholesterol, atherogenic VLDL cholesterol and LDL cholesterol, as well as triglyceride levels. […] Agents shown to be active in phase I are considered to interfere with cholesterol biosynthesis.
κ-Carrageenan and lipoxygenase type I-B from soybean were purchased from Sigma (St. Louis, MO, U.S.A.). For the in vivo experiments, Wistar rats (180–220 g, 3–4 months old) were kept in the Centre of the School of Veterinary Medicine (EL54 BIO42), Aristotelian University of Thessaloniki, which is registered by the official state veterinary authorities (presidential degree 56/2013, in harmonization with the European Directive 2010/63/EEC). The experimental protocols were approved by the Animal Ethics Committee of the Prefecture of Central Macedonia (no. 270079/2500).
Hyperlipidaemia was induced by the i.p. administration of Triton WR 1339 (200 mg/kg) to rats. […] Blood was taken from the aorta after 24 h, for the determination of plasma total cholesterol, LDL-cholesterol and triglyceride concentrations, using commercial kits.

[5] = read-out: % Reduction LDL-C (LDL cholesterol)
[6] = read-out: % Reduction TC (total cholesterol)
[7] = read-out: % Reduction TG (triglycerides)

| IC50 (soybean lipoxygenase 1-B) [µM] | IC50 [2] [µM] | melting point [°C] | Structure (SMILES) | inhibition in vivo at 150 µmol/kg [1] [%] | lag period in time course of lipid peroxidation ([2]; various concentrations, Figure 2) | NO Release ([3]; compound 31.25 μM) [μΜ] | NO Release ([3]; compound 62.5 μM) [μΜ] | NO Release ([3]; compound 125 μM) [μΜ] | NO Release ([3]; compound 250 μM) [μΜ] | NO Release ([3]; compound 500 μM) [μΜ] | Percent Interaction with DPPH ([4]; compound 50 μΜ) [%] | Percent Interaction with DPPH ([4]; compound 100 μΜ) [%] | Percent Interaction with DPPH ([4]; compound 200 μΜ) [%] | inhibition in vivo at 150 µmol/kg (hyperlipidaemic rats; [5]) [%] | inhibition in vivo at 150 µmol/kg (hyperlipidaemic rats; [6]) [%] | inhibition in vivo at 150 µmol/kg (hyperlipidaemic rats; [7]) [%] | % Oedema Reduction [1] |
| --- | --- | --- | --- | --- | --- | --- | --- | --- | --- | --- | --- | --- | --- | --- | --- | --- | --- |
| 120 | 2.3 | 95 to 97 | Cc1c(C)c2c(c(C)c1O)CCC(C)(C(=O)OCCO[N+](=O)[O-])O2 (racemic) [Compound 9, (±)-2-(Nitrooxy)ethyl 6-hydroxy-2,5,7,8-tetramethylchroman-2-carboxylate] | 57 | about 20 min | 3 | 10 | 23 | 49 | 93 | 55 | 90 | 92 | 65 | 55.4 | 30 | – |
| 107 | – | 83 to 84 | COc1ccc2c(c1)c(CC(=O)OCCO[N+](=O)[O-])c(C)n2C(=O)c1ccc(Cl)cc1 [Compound 3, 2-(Nitrooxy)ethyl 2-(1-(4-chlorobenzoyl)-5-methoxy-2-methyl-1H-indol-3-yl)acetate] | 29 | – | 5 | 13 | 28 | 58 | 102 | – | – | – | 62.3 | 71.7 | 31.8 | – |
| 44 | 41 | 80 | CC(C)(C)c1cc(/C=C/C(=O)OCCO[N+](=O)[O-])cc(C(C)(C)C)c1O [Compound 7, (E)-2-(Nitrooxy)ethyl 3-(3,5-di-tert-butyl-4-hydroxyphenyl)acrylate] | 55 | – | 2 | 6.5 | 17 | 38 | 77 | 21 | 49 | 87 | 60.6 | 66 | 45.7 | 55 ** % |
| 10.5 | 150 | 156 to 157 | CC(C)(C)c1cc(/C=C/C(=O)OCCc2ccc([N+](=O)[O-])cc2)cc(C(C)(C)C)c1O [Compound 8, (E)-4-Nitrophenethyl 3-(3,5-di-tert-butyl-4-hydroxyphenyl)acrylate] | 51 | – | – | – | – | – | – | 23 | 57 | 88 | – | – | – | 51 ** % |
